From patent US20140378408A1, “NUCLEOSIDE 5'-PHOSPHOROTHIOATE ANALOGUES AND USES THEREOF” (BAR-ILAN UNIVERSITY, an Israeli University, priority 2012, published 2014)
Read-outs that look alike come from different tables or passages of the source. Each block holds one compound with its values, some of them ahead of it.

How the values were obtained:
[1] = system: cortical neurons; test: Neuroprotection of cultured cortical neurons exposed to FeSO4 or FeSO4/H2O2; assay type: cell-based; conditions: Table 2, neuroprotection of primary neurons exposed to FeSO4, read-out: IC50
Procedure: FIGS. 10A-10B show the neuroprotective effect of ATP-γ-S and GDP-β-S (0.2-200 μM, t=24 h) as evaluated by MTT production in cortical neurons exposed for 24 h to either FeSO4 at final concentration of 3 μM (10A); or both FeSO4 (3 μM) and H2O2 (100 μM) (10B). The results shown are the mean±SEM of three independent experiments in quadruplicate.
Cultured cortical neurons in 96-well plates were treated with different concentrations of FeSO4, or hydrogen peroxide and FeSO4, for 24 h at 37° C. Following exposure to various insults, the cells were treated with ATP-γ-S and GDP-β-S as described. Cells were subsequently incubated for a further 18-24 h as indicated before being assessed for viability measures. Neurons were treated with ATP-γ-S and GDP-β-S at three concentrations ([…]) simultaneously with 1.5, 3 or 6 μM FeSO4 for 24 h. Following 24 h incubation in the presence of both FeSO4 and ATP-γ-S and GDP-β-S cell viability measures were assessed by XTT assay. All experiments were performed in triplicate.
FeSO4 induced a concentration-dependent decrease in cell viability as assessed by XTT assay and morphological assessment following 24 h of exposure (FIG. 9). The neuroprotective effect of ATP-γ-S and GDP-β-S (due to iron chelation) was evaluated in cortical neurons exposed to FeSO4 for 24 h (FIG. 10).

[2] = molecular target: T1, Aβ28-Cu^+ complex (Homo sapiens, UniProt P05067); test: Titration of Aβ28-Cu^+ complex by chelators monitored by 1H-NMR; conditions: 0.8 mM Aβ28-Cu^+, pD 7; for effect on Aβ28-Cu^+ 1H-NMR spectrum: 6 eq chelator
T1 construct: we first studied Aβ28, as a more soluble fragment of Aβ40; purchased Sigma-Aldrich

[3] = ESR OH radical assay, Fe^2+/H2O2 Fenton system; conditions: N/A = minimal radical production exceeds 10%
[4] = system: PC12 cells; test: Inhibition of Fe(II)-induced ROS formation in PC12 cells (DCFH-DA); assay type: cell-based; conditions: PC12 cells, FeSO4 0.16 μM, 1 h, DCFH-DA; read-out: IC50 inhibition of ROS formation
Procedure: In this study, nucleoside 5′-phosphorothioate analogues were explored as inhibitors of Fe(II)-induced oxidative stress in PC12 cells used as a neuronal model. Reduction of ROS production in PC12 cells by each one of the tested analogues was measured by DCFH-DA, a radical sensitive indicator. After DCFH-DA was removed, the tested analogue was added to the cells at a final concentration of 0.2-200 μM. Oxidation was initiated by the addition of FeSO4 (0.16 μM) to the wells. The plates were incubated for 1 h at 37° C., during which the absorbance was read by a Tecan fluorometer at 485/530 nm.

[5] = molecular target: T2, human NPP3 (Homo sapiens, UniProt O14638); test: Inhibition of NPP3 activity; assay type: biochemical; conditions: read-out: inhibition of NPP3 activity
T2 construct: made in house; host or cells: COS-7 cells (transfected; protein extract / cell lysate)
T2 sequence (O14638 1-875): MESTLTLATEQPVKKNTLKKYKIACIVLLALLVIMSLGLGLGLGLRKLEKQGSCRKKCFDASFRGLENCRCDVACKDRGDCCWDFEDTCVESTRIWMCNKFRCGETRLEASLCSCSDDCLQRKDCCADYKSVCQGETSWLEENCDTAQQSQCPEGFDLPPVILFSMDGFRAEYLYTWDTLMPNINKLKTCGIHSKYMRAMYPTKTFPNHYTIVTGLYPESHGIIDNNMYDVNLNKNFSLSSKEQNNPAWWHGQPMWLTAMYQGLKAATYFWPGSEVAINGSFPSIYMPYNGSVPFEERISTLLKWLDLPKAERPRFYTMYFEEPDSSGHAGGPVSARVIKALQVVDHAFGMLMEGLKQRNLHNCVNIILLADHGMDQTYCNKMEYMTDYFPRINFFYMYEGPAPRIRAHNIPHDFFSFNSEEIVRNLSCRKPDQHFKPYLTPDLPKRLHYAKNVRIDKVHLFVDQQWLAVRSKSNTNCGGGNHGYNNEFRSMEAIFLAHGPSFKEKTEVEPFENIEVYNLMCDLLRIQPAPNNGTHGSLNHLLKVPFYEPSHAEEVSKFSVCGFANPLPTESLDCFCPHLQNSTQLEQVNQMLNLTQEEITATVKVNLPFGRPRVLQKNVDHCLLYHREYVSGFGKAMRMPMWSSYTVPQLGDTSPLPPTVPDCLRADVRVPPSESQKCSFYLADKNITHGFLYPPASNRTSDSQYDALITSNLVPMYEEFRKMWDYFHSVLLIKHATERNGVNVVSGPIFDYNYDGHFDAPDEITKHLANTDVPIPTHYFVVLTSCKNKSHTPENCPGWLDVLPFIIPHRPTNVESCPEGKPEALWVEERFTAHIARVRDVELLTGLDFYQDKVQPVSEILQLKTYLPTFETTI
Procedure: Pnp-TMP hydrolyses were carried out at 37° C. in 0.2 ml of the following incubation mixture: in mM, 1 CaCl2, 130 NaCl, 5 KCl and 50 Tris, pH 8.5, with or without the analogue tested and/or substrates. Substrates and analogues were all used at the final concentration of 100 μM. […] For pnp-TMP hydrolysis, the production of para-nitro-phenol was measured at […], 15 min after the initiation of the reaction.
The samples were centrifuged for 5 min at 13,000×g. Supernatants were neutralized with 1 M KOH (Fisher Scientific, Ottawa, ON, Canada) at 4° C. and centrifuged for 5 min at 13,000×g.

[6] = molecular target: T3, human NPP1 (Homo sapiens, UniProt P22413); test: Inhibition of NPP1 activity; assay type: biochemical; conditions: Dixon and Cornish-Bowden methods
T3 construct: made in house; host or cells: COS-7 cells (transfected; protein extract / cell lysate)
T3 sequence (P22413 1-925): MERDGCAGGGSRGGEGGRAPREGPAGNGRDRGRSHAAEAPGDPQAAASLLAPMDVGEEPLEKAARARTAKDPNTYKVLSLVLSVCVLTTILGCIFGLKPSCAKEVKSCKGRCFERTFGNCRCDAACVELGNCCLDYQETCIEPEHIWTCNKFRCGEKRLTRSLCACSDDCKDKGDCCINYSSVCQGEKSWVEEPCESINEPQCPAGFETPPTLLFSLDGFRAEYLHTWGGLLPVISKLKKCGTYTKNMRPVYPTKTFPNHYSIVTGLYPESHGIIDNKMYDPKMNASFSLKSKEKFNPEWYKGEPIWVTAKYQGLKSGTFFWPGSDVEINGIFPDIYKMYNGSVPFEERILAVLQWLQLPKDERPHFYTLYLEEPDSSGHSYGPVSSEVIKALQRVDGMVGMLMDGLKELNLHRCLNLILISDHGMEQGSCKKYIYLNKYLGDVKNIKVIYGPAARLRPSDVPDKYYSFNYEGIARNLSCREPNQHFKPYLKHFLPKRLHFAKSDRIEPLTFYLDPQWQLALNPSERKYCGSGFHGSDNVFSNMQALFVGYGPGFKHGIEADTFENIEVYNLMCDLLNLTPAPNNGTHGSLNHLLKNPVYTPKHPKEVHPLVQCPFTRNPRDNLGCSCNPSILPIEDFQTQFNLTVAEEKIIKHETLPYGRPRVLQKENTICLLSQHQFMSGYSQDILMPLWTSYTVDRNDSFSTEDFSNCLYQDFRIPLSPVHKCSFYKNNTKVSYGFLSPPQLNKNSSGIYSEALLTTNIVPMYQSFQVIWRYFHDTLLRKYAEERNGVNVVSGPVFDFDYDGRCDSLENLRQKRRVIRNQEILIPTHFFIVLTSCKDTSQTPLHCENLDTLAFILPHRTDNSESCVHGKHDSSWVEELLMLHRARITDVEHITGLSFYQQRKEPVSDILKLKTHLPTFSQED

[7] = molecular target: T4, human P2Y1-R (Homo sapiens, UniProt P47900); test: [Ca^2+]i response of 1321N1 astrocytoma cells expressing P2Y1-R GFP; assay type: cell-based; conditions: agonist; read-out: EC50 at the P2Y1 receptor
T4 construct: expressed in transfected cells; host or cells: 1321N1 astrocytoma cells
Procedure: GFP constructs of human P2Y2-R, P2Y1-R and P2Y11-R were stably expressed in 1321N1 astrocytoma cells, which lack endogenous expression of P2X- and P2Y-receptors. The respective cDNA of the receptor gene was cloned into a pEGFPN1 vector and after transfection, using FuGENE 6 Transfection Reagent (Roche Molecular Biochemicals, Mannheim, Germany), cells were selected with 0.5 mg/ml G418 (geneticine; Merck Chemicals, Darmstadt, Germany) and grown in DMEM supplemented with 10% serum (FCS), 100 U/ml penicillin and 100 U/ml streptomycin at 37° C. and 5% CO2. The expression and cell membrane localization of the respective P2Y receptors was confirmed through the analysis of the GFP fluorescence. The functionality of the expressed GFP-labeled receptor in cells was verified by recording a change of [Ca^2+]i after stimulation with the appropriate receptor agonist.
1321N1 astrocytoma cells transfected with the respective plasmid for P2Y-R-GFP expression plated on coverslips (22 mm diameter) and grown to approximately 80% density, were incubated with 2 μM fura 2/AM and 0.02% pluronic acid in Na-HBS buffer (Hepes buffered saline: 145 mM NaCl, 5.4 mM KCl, 1.8 mM CaCl2, 1 mM MgCl2, 25 mM glucose, 20 mM Hepes/Tris pH 7.4) for 30 min at 37° C. The cells were superfused (1 ml/min, 37° C.) with different concentrations of nucleotide in Na-HBS buffer. The nucleotide-induced change of [Ca^2+] was monitored by detecting the fluorescence intensities with excitations at 340 nm and 380 nm. Only GFP-labeled cells were analyzed. Microsoft Excel (Microsoft Corp., Redmond, Wash., USA) and SigmaPlot (SPSS Inc., Chicago, Ill., USA) were used to derive the concentration-response curves and EC50 values from the average response amplitudes obtained in at least three independent experiments (Ecke et al., 2006; Ecke et al., 2008). Only cells with a clear GFP-signal and with the typical calcium response kinetics upon agonist pulse application were included in the data analysis. The nucleotide induced change of [Ca^2+]i was monitored by detecting the respective emission intensity of fura 2/AM at 510 nm with 340 nm and 380 nm excitations (Ubl et al., 1998). The average maximal amplitude of the responses and the respective standard errors were calculated from ratio of the fura 2/AM. The GFP-tagged P2Y receptors are suitable for pharmacological and physiological studies, as previously reported (Tulapurkar et al., 2004; Tulapurkar et al., 2006; Zylberg et al., 2007).

T1 sequence (P05067 672-699 limits assumed, one chain of several): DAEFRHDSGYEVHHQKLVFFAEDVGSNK
T4 sequence (P47900 whole entry): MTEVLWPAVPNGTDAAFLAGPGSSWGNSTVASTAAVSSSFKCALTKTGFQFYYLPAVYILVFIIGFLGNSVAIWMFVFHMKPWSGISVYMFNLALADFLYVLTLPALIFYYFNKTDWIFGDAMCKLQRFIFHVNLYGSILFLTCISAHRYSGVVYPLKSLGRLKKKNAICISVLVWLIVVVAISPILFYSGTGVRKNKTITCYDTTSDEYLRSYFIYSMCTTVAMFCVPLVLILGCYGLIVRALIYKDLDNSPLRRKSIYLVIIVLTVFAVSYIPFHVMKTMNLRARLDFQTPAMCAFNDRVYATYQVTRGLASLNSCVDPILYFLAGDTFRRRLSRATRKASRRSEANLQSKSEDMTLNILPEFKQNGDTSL

IC50 ([1]; Cortical neurone): 32 ± 2.3 µM
SMILES: Nc1nc2c(ncn2[C@@H]2O[C@H](COP(=O)(O)OP(=O)(O)OP(=O)(O)O)[C@@H](O)[C@H]2O)c(=O)[nH]1 [GTP, guanosine triphosphate]

IC90 [3]: 491 ± 5 µM
SMILES: N[C@@H](CCC(=O)N[C@@H](CS)C(=O)NCC(=O)O)C(=O)O [GSH, glutathione]

IC50 ([1]; Cortical neurone): 19 ± 1.9 µM
SMILES: Nc1ncnc2c1ncn2[C@@H]1O[C@H](COP(=O)(O)OP(=O)(O)O)[C@@H](O)[C@H]1O [ADP, adenosine diphosphate]

IC50 ([1]; Cortical neurone): 25 ± 3.3 µM
SMILES: O=C(O)CC(O)(CC(=O)O)C(=O)O [Citrate]

The remaining lines, values behind:

SMILES: [Na+].[Na+].[Na+].[O-]P([O-])([O-])=S [Thiophosphate, trisodiumthiophosphate]
effect on Aβ28-Cu^+ 1H-NMR spectrum [2]: significant sharpening of the Aβ28 spectrum

SMILES: Cc1c(C)c2c(c(C)c1O)CCC(C)(C(=O)O)O2 (centres unmarked) [Trolox]
IC50 ([1]; Cortical neurone): 23 ± 3.1 µM

SMILES: O=P([O-])([O-])OP(=O)([O-])OP(=O)([O-])[O-].[Na+].[Na+].[Na+].[Na+].[Na+] [triphosphate, sodium triphosphate]
effect on Aβ28-Cu^+ 1H-NMR spectrum [2]: showed only Phe peaks reappearances without any His signals

SMILES: Nc1nc2c(ncn2[C@@H]2O[C@H](COP(=O)(O)OP(=O)(O)OP(O)(O)=S)[C@@H](O)[C@H]2O)c(=O)[nH]1 [GTP-γ-S, guanosine 5′-[γ-thio]triphosphate]
equivalents at which the spectrum resembled that of pure Aβ28 [2]: 3.2 eq
IC50 [1]: 0.04 ± 0.01 µM
IC50 [4]: 5 µM

SMILES: Nc1ncnc2c1ncn2C1OC(COP(O)(=S)OP(=O)(O)CP(=O)(O)O)C(O)C1O (stereo not drawn) [APPCP-α-S, adenosine 5′-[Pα-thio]-β,γ-methylenetriphosphate]
inhibition at 100 µM [5]: 23 to 43%
type of inhibition [6]: mixed type inhibition, predominantly competitive
EC50 [7]: > 10 µM

SMILES: Nc1nc2c(ncn2[C@@H]2O[C@H](COP(=O)(O)OP(=O)(O)O)[C@@H](O)[C@H]2O)c(=O)[nH]1 [GDP, gunosine diphosphate]
IC50 [1]: 21 ± 3.1 µM
